“Also recorded” adds a separate entry of the source.
How the values were obtained:
[1] = test system: Interferon-gamma (IFN-γ); assay: Interferon-gamma (IFN-γ) production in cell culture supernatants by ELISA, lymphocytes of mice immunized with adjuvanted MUC1 liposomal vaccine; type: in vivo, C57-Black mice; settings: for Interferon-gamma (IFN-γ, pg/ml): s.c. liposomal vaccine 40 μg BP1-148 + 20 μg Lipid-A analog per dose, nine days after injection; for interferon-gamma production: in words, liposomal vaccine formulations in mice, FIG. 31-FIG. 33
Protocol: (§1) Typically, the liposomal formulation was composed of 400 μg of MUC1-based lipopeptide BP1-148, H2N-[…](Pal)G-OH, 200 μg of Lipid-A analog, 6.94 mg of cholesterol, 1.46 mg of dimyristoyl phosphatidylglycerol ([…]) and 11.62 mg of dipalmitoyl phosphatidylcholine (DPPC) per 1 ml of saline (0.9% NaCl solution).
(§2) The liposomal constructs were formulated by first dissolving the phospholipids, cholesterol and Lipid A analog in tert-butanol at about 53° C. Lipopeptide and water (5%, v/v) were then added to the tert-butanol solution. The resulting clear 95% tert-butanol solution was injected into about 4 volumes of rapidly stirred water at about 50° C., using a glass syringe with an 18-gauge needle. The small unilamellar vesicles (SUV) formed in this process were cooled, sterilized by filtration through a 0.22 μm membrane filter, filled into vials and lyophilized. The dry powder was re-hydrated with sterile saline before injection, resulting in the formation of multilamellar large vesicles (MLV). The liposomes formed are used to immunize mice.
(§3) Groups of C57-Black mice were immunized subcutaneously with the liposomal vaccine containing 40 μg of MUC1-based lipopeptide BP1-148 (FIG. 34), which has the peptide sequence of H2N-[…](Pal) G-OH, and 20 μg of Lipid-A analog per dose. Nine days after vaccine injection mice were sacrificed and lymphocytes were taken from the draining lymph nodes (local response) or from the spleens (systemic response) to determine the immune response in each group. The lymphocytes taken from immunized mice were incubated in in vitro cultures in the presence of MUC1-based boosting antigen BP1-151, which has the peptide sequence H2N-[…]-OH.
Interferon-gamma (IFN-γ) levels were determined in the cell culture supernatants using enzyme-linked immunoabsorbent assay (ELISA). 96-Well plates were coated with 50 μl of catcher Mabs in 50 μl of R4.6AZ at 37° C. for 30 min. The plates were then washed and incubated with test samples for 45 min. After two washes the second biotinylated antibody, XMG1.2 was added. After washing, peroxidase-conjugated streptavidin was added and incubated again for 30 min. Finally, 100 μl of horseradish peroxidase (HRPO) substrate solution was added. The optical density was measured with a Thermomax ELISA reader at 405 nm wavelength in kinetic mode for 10 min. The interferon-gamma (IFN-γ) levels corresponding to various Lipid-A analogs are shown in Table 1-Table 3 and FIG. 31-FIG. 33.

[2] = Solubility of Lipid-A analogs for incorporation into liposomes; type: physicochemical; settings: in words; given as cause of poor incorporation into liposomes
[3] = test system: T-cell; assay: T-cell proliferation (3H thymidine incorporation) of lymph node lymphocytes from mice immunized with MUC1-based liposomal vaccine adjuvanted with Lipid-A analog; type: in vivo, C57-Black mice; settings: for T-cell-Proliferation (CPM): s.c. liposomal vaccine 40 μg BP1-148 + 20 μg Lipid-A analog per dose, nine days after injection, boosting antigen BP1-151; for T-cell blastogenesis: in words, liposomal vaccine formulations in mice, FIG. 31-FIG. 33
Protocol: as §1, §2, §3
T-cell proliferation was evaluated using a standard ^3H thymidine incorporation assay. Briefly, nylon wool passed inguinal lymph node lymphocytes from each mouse were added to a culture containing 106 native mitomycin C treated syngeneic splenocytes, which serves as antigen presenting cells (APCs). To each well 20 μg of MUC1-based boosting peptide BP1-151, H2N-[…]-OH (single letter amino acid code, Table 8), was added for positive control; and cultures containing no antigen or peptide BP1-72, which has the peptide sequence H2N-[…]-OH, were used as negative control. The culture was incubated for 72 h in a total volume of 250 μl well, followed by adding 1 μCi of ^3H-thymidine in a volume of 50 μl. The plates were incubated for an additional 18-20 h. Cells were harvested and [^3H]dTh incorporation was measured by liquid scintillation counter. T-cell proliferation results corresponding to various liposomal vaccines adjuvanted, with different Lipid-A analogs are summarized in Tables 1-Table 3 and FIG. 31-FIG. 33.

[4] = test system: C57-Black mice; assay: Lethal toxicity of Lipid-A analogs injected i.p. followed by Actinomycin D; type: in vivo; settings: for No. Survived/No. Tested (+24 h): Actinomycin D +
Protocol: Synthetic Lipid-A analog 86 and the Natural Lipid-A (see Example 95 for more detail) were tested for their lethal toxicity. Test methods and results are summarized below (Table 4) • a) Preparation of Lipid-A analog solution: 1 mg of Lipid-A analog was dissolved in 1 ml of 20% DMSO and diluted with saline to obtain 50 μg, 10 μg and 2 μg doses in 0.5 ml. • b) Preparation of Actinomycin D: 5 mg of Actinomycin D was dissolved in 1 ml of ethanol and diluted with saline to obtain a dose at 550 μg/kg in 0.5 ml. • c) Procedure: Various doses of Lipid-A analogs or solvent as control were injected intraperitoneally (i.p.) into C57-Black mice. Twenty minutes later all groups of mice were injected with 500 μl of Actinomycin D. Mice were then observed for mortality or any other symptoms of toxicity.

[5] = test system: immune response to MUC1-based lipopeptide BP1-148; assay: Adjuvanticity of Lipid-A analogs in liposomal vaccine with MUC1 lipopeptide BP1-148 (T-cell blastogenesis and IFN-γ production); type: in vivo, mice; settings: in words
Source text: Liposome formulations have been used to evaluate the adjuvant properties of various synthetic Lipid-A structures and the immune responses to a synthetic lipopeptide antigen BP-148, H2N-[…](Pal)G-OH (FIG. 34), a modified 25-amino-acid sequence derived from tumor-associated MUC1 mucin. The commercially available Lipid-A product, which is currently under clinical evaluation as an adjuvant for vaccine programs, was used for comparison. The natural Lipid-A product, purchased from AVANTI, contained a mixture of Lipid-A analogs extracted from Salmonella bacterial cell wall and is designated as Natural Lipid-A in this invention.
Thus, the liposomal formulations containing the synthetic lipopeptide antigen, BP1-148, and Lipid-A analogs 33, 48, 54, 58, 70, 77, 86, 94, 102, 104 or Natural Lipid-A, were used to immunize mice to measure their immune response in terms of T-cell blastogenesis and interferon-gamma (IFN-γ) production. The compounds were tested in three groups at different time and their preliminary results are shown separately in FIGS. 31-33. As the variations are attributed to different factors such as animal groups and experimental factors, the data from different groups will not be compared.
as §3

[6] = literature bioassays; cited from earlier work

| Compound | Interferon-gamma (IFN-γ, pg/ml) ([1]; Table 1, first test group) [pg/mL] | interferon-gamma production [1] | solubility [2] | T-cell-Proliferation (CPM) ([3]; Table 1, first test group) | T-cell blastogenesis [3] | Interferon-gamma (IFN-γ, pg/ml) ([1]; Table 2, second test group) [pg/mL] | T-cell-Proliferation (CPM) ([3]; Table 2, second test group) | also measured |
| --- | --- | --- | --- | --- | --- | --- | --- | --- |
| CCCCCCCCCCCCCC(=O)N[C@@H](CC(=O)N[C@H]1C(O)O[C@H](CO)[C@@H](OP(=O)(O)O)[C@@H]1OC(=O)CCCCCCCCCCCCC)C(=O)NCCCCCCCCC (stereo partly drawn) [Compound 33, 2-Deoxy-4-O-phosphono-2-[(3S)-3-tetradecanamido-4-nonylamino-4-oxo-butanamido]-3-O-tetradecanoyl-α/β-D-glucopyranose] | 0 | inactive | poor solubility | 822 | inactive | – | – | – |
| CCCCCCCCCCCCCC(=O)N[C@@H](CC(=O)N[C@H]1[C@H](OC[C@H]2OC(O)[C@H](NC(=O)C[C@@H](CCCCCCCCCCC)OC(=O)CCCCCCCCCCCCC)[C@@H](O)[C@@H]2O)O[C@H](CO)[C@@H](OP(=O)(O)O)[C@@H]1OC(=O)C[C@@H](CCCCCCCCCCC)OC(=O)CCCCCCCCCCCCC)C(=O)NCCCCCCCCC (stereo partly drawn) [Compound 58, 2-Deoxy-6-O-{2-deoxy-2-[(3S)-3-tetradecanamido-4-nonylamino-4-oxo-butanamido]-4-O-phosphono-3-O-[(3R)-3-tetradecanoyloxytetradecanoyl]-β-D-glucopyranosyl}-2-[(3R)-3-tetradecanoyloxytetradecanamido]-α/β-D-glucopyranose] | 0 | inactive | poor solubility | 686 | inactive | – | – | – |
| CCCCCCCCCCCCCC(=O)N[C@@H](CC(=O)N[C@H]1[C@H](OC[C@H]2OC(O)[C@H](NC(=O)C[C@@H](CCCCCCCCCCC)OC(=O)CCCCCCCCCCCCC)[C@@H](OC(=O)C[C@H](O)CCCCCCCCCCC)[C@@H]2O)O[C@H](CO)[C@@H](OP(=O)(O)O)[C@@H]1OC(=O)C[C@@H](CCCCCCCCCCC)OC(=O)CCCCCCCCCCCCC)C(=O)NCCCCCCCCC (stereo partly drawn) [Compound 77, 2-Deoxy-6-O-{2-deoxy-2-[(3S)-3-tetradecanamido-4-nonylamino-4-oxo-butanamido]-4-O-phosphono-3-O-[(3R)-3-tetradecanoyloxytetradecanoyl]-β-D-glucopyranosyl}-3-O-[(3R)-3-hydroxytetradecanoyl]-2-[(3R)-3-tetradecanoyloxytetradecanamido]-α/β-D-glucopyranose] | – | inactive | poor solubility | – | inactive | 0 | 2565 | – |
| CCCCCCCCCCCCCC(=O)O[C@H](CCCCCCCCCCC)CC(=O)N[C@H]1[C@H](OC[C@H]2OC(O)[C@H](NC(=O)C[C@@H](CCCCCCCCCCC)OC(=O)CCCCCCCCCCCCC)[C@@H](OC(=O)C[C@H](O)CCCCCCCCCCC)[C@@H]2O)O[C@H](CO)[C@@H](OP(=O)(O)O)[C@@H]1OC(=O)C[C@@H](CCCCCCCCCCC)OC(=O)CCCCCCCCCCCCC (stereo partly drawn) [Compound 86, 2-Deoxy-6-O-{2-deoxy-4-O-phosphono-2-[(3R)-3-tetradecanoyloxytetradecanamido]-3-O-[(3R)-3-tetradecanoyloxytetradecanoyl]-β-D-glucopyranosyl}-3-O-[(3R)-3-hydroxytetradecanoyl]-2-[(3R)-3-tetradecanoyloxytetradecanamido]-α/β-D-glucopyranose] | – | high levels of interferon-gamma | – | – | significant T-cell blastogenesis | 36461 | 52382 | survival of the study ([4]; all three doses (50 μg, 10 μg, 2 μg) i.p., experiment terminated 4 days later): survived the study; No. Survived/No. Tested (+24 h) ([4]; dose 2/500 μg/μl i.p.): 3/3; No. Survived/No. Tested (+24 h) ([4]; dose 10/500 μg/μl i.p.): 3/3; No. Survived/No. Tested (+24 h) ([4]; dose 50/500 μg/μl i.p.): 3/3; toxicity compared to Natural Lipid-A product from Salmonella ([4]; in words, in vivo, C57-Black mice, Actinomycin D): much less toxic; also recorded: much lower; adjuvant activity compared to Natural Lipid-A (Lipid-A preparation of bacterial origin) ([5]; liposomal formulations with BP1-148 in mice, FIGS. 31-33): as effective; activity compared to the other synthetic Lipid-A analogs ([5]; second group (FIG. 32)): slightly more active; Interferon-gamma (IFN-γ, pg/ml) ([1]; Table 3, third test group): 17697 pg/mL; T-cell-Proliferation (CPM) ([3]; Table 3, third test group): 15486 CPM |
| monophosphoryl Lipid-A | – | – | – | – | – | – | – | potency on a molar basis in eliciting toxic and pyrogenic responses, compared to diphosphoryl Lipid-A [6]: 1000 times less potent |

From patent publication US7491707B1, “Synthetic lipid-a-analogs and uses thereof” (Biomira, Inc., priority 1999, dated 2009)
